Laboratory results reported in the NIST ThermoML archive (doi:10.1016/j.jct.2008.12.004).

Assay: excess molar enthalpy (molar enthalpy of mixing); xn = mol fraction of the nth substance listed
Settings: 101 kPa, Liquid, Flow calorimetry

CCCCCCC [heptane] + CCOC(C)(C)C
x2 = 0
Settings | excess molar enthalpy [kJ/mol]
298.15 K | 0
313.15 K | 0

C1CCCCC1 [cyclohexane] + Cc1ccccc1
excess molar enthalpy [kJ/mol]
Settings | 298.15 K | 313.15 K
x1 = 0.0491 | – | 0.104
x1 = 0.0492 | 0.11 | –
x1 = 0.1003 | – | 0.202
x1 = 0.1004 | 0.213 | –
x1 = 0.1496 | – | 0.287
x1 = 0.1497 | 0.304 | –
x1 = 0.199 | – | 0.36
x1 = 0.1991 | 0.381 | –
x1 = 0.2485 | – | 0.424
x1 = 0.2486 | 0.45 | –
x1 = 0.298 | – | 0.48
x1 = 0.2981 | 0.507 | –
x1 = 0.3477 | – | 0.524
x1 = 0.3479 | 0.551 | –
x1 = 0.3974 | – | 0.559
x1 = 0.3976 | 0.589 | –
x1 = 0.4493 | 0.614 | 0.583
x1 = 0.4992 | 0.624 | 0.594
x1 = 0.5493 | 0.625 | 0.593
x1 = 0.5974 | – | 0.583
x1 = 0.5975 | 0.614 | –
x1 = 0.6476 | – | 0.559
x1 = 0.6478 | 0.589 | –
x1 = 0.6979 | – | 0.522
x1 = 0.6981 | 0.55 | –
x1 = 0.7483 | – | 0.472
x1 = 0.7485 | 0.495 | –
x1 = 0.7989 | – | 0.409
x1 = 0.799 | 0.429 | –
x1 = 0.8496 | 0.347 | 0.33
x1 = 0.9003 | 0.245 | 0.235
x1 = 0.9491 | 0.133 | 0.127
x1 = 1 | 0 | 0

C1CCCCC1 [cyclohexane] + CCOC(C)(C)C
x2 = 0
Settings | excess molar enthalpy [kJ/mol]
298.15 K | 0
313.15 K | 0

Cc1ccccc1 [toluene] + CCCCCCC
excess molar enthalpy [kJ/mol]
Settings | 298.15 K | 313.15 K
x2 = 0 | 0 | 0
x2 = 0.0502 | 0.123 | 0.119
x2 = 0.1008 | 0.231 | 0.222
x2 = 0.1501 | 0.318 | 0.306
x2 = 0.1995 | 0.393 | 0.376
x2 = 0.2507 | – | 0.434
x2 = 0.2508 | 0.452 | –
x2 = 0.3002 | 0.497 | 0.477
x2 = 0.3495 | 0.531 | –
x2 = 0.3496 | – | 0.508
x2 = 0.4005 | 0.55 | –
x2 = 0.4006 | – | 0.529
x2 = 0.4494 | 0.56 | –
x2 = 0.4497 | – | 0.538
x2 = 0.4999 | 0.556 | 0.535
x2 = 0.55 | 0.545 | 0.521
x2 = 0.5995 | 0.521 | 0.499
x2 = 0.6505 | 0.485 | –
x2 = 0.6506 | – | 0.466
x2 = 0.7009 | 0.444 | 0.426
x2 = 0.7504 | 0.391 | –
x2 = 0.7505 | – | 0.376
x2 = 0.799 | 0.333 | 0.319
x2 = 0.849 | 0.264 | 0.251
x2 = 0.9005 | 0.18 | 0.174
x2 = 0.9509 | 0.0923 | 0.0887

CCCO [propan-1-ol] + COC(C)(C)C
Settings | excess molar enthalpy [kJ/mol]
298.15 K, x2 = 0 | 0

CCOC(C)(C)C [2-ethoxy-2-methylpropane] + CCCCCCC
excess molar enthalpy [kJ/mol]
Settings | 298.15 K | 313.15 K
x1 = 0.0511 | – | 0.0422
x1 = 0.0512 | 0.0457 | –
x1 = 0.1007 | 0.0886 | –
x1 = 0.1504 | 0.123 | –
x1 = 0.1507 | – | 0.121
x1 = 0.2003 | 0.162 | –
x1 = 0.2008 | – | 0.155
x1 = 0.2509 | 0.188 | –
x1 = 0.2511 | – | 0.189
x1 = 0.3016 | 0.214 | –
x1 = 0.3019 | – | 0.212
x1 = 0.3505 | 0.238 | –
x1 = 0.351 | – | 0.23
x1 = 0.4019 | 0.253 | –
x1 = 0.4024 | – | 0.245
x1 = 0.4515 | 0.271 | –
x1 = 0.4518 | – | 0.252
x1 = 0.5014 | 0.275 | –
x1 = 0.5017 | – | 0.253
x1 = 0.5516 | 0.272 | –
x1 = 0.5519 | – | 0.25
x1 = 0.6022 | 0.266 | –
x1 = 0.6024 | – | 0.245
x1 = 0.6509 | 0.255 | –
x1 = 0.6511 | – | 0.233
x1 = 0.7019 | 0.233 | –
x1 = 0.7022 | – | 0.218
x1 = 0.7512 | 0.209 | –
x1 = 0.7515 | – | 0.195
x1 = 0.8008 | 0.181 | –
x1 = 0.801 | – | 0.167
x1 = 0.8507 | 0.146 | –
x1 = 0.8509 | – | 0.134
x1 = 0.9009 | 0.102 | –
x1 = 0.901 | – | 0.0943
x1 = 0.9492 | 0.0552 | –
x1 = 0.9493 | – | 0.0509
x1 = 1 | 0 | 0

CCOC(C)(C)C [2-ethoxy-2-methylpropane] + C1CCCCC1
excess molar enthalpy [kJ/mol]
Settings | 298.15 K | 313.15 K
x1 = 0.0505 | 0.0505 | –
x1 = 0.0506 | – | 0.0476
x1 = 0.1 | 0.0987 | –
x1 = 0.1001 | – | 0.0917
x1 = 0.1508 | 0.143 | –
x1 = 0.1509 | – | 0.136
x1 = 0.2005 | 0.181 | –
x1 = 0.2006 | – | 0.174
x1 = 0.2514 | 0.217 | –
x1 = 0.2515 | – | 0.209
x1 = 0.3011 | 0.247 | –
x1 = 0.3012 | – | 0.235
x1 = 0.3519 | 0.273 | 0.261
x1 = 0.4014 | 0.294 | –
x1 = 0.4015 | – | 0.283
x1 = 0.4519 | 0.31 | –
x1 = 0.452 | – | 0.295
x1 = 0.5012 | 0.319 | 0.305
x1 = 0.5513 | 0.323 | 0.308
x1 = 0.6021 | 0.32 | 0.306
x1 = 0.6516 | 0.309 | –
x1 = 0.6517 | – | 0.296
x1 = 0.7017 | 0.293 | –
x1 = 0.7019 | – | 0.28
x1 = 0.7507 | 0.269 | –
x1 = 0.7508 | – | 0.258
x1 = 0.8002 | 0.236 | 0.224
x1 = 0.85 | – | 0.184
x1 = 0.8501 | 0.194 | –
x1 = 0.9003 | 0.142 | 0.134
x1 = 0.9508 | 0.0761 | 0.073
x1 = 1 | 0 | 0

COC(C)(C)C [2-methoxy-2-methylpropane] + CCCO
298.15 K
Settings | excess molar enthalpy [kJ/mol]
x1 = 0.0491 | 0.0621
x1 = 0.0997 | 0.131
x1 = 0.1503 | 0.201
x1 = 0.1976 | 0.264
x1 = 0.2472 | 0.327
x1 = 0.2965 | 0.383
x1 = 0.3477 | 0.437
x1 = 0.4008 | 0.486
x1 = 0.4468 | 0.52
x1 = 0.4982 | 0.548
x1 = 0.5486 | 0.568
x1 = 0.5974 | 0.576
x1 = 0.6485 | 0.571
x1 = 0.6977 | 0.556
x1 = 0.7491 | 0.525
x1 = 0.7985 | 0.475
x1 = 0.8494 | 0.403
x1 = 0.8986 | 0.308
x1 = 0.9498 | 0.173
x1 = 1 | 0

C1CCCCC1 [cyclohexane] + CCCCCC
298.15 K
Settings | excess molar enthalpy [kJ/mol]
x1 = 0.074 | 0.0485
x1 = 0.1463 | 0.0909
x1 = 0.219 | 0.126
x1 = 0.2876 | 0.158
x1 = 0.3542 | 0.183
x1 = 0.4193 | 0.202
x1 = 0.4832 | 0.214
x1 = 0.5476 | 0.219
x1 = 0.6085 | 0.22
x1 = 0.6675 | 0.213
x1 = 0.7255 | 0.199
x1 = 0.7839 | 0.178
x1 = 0.8395 | 0.148
x1 = 0.8935 | 0.109
x1 = 0.9482 | 0.0585
x1 = 1 | 0

CCCCCCC [heptane] + Cc1ccccc1
x1 = 1
Settings | excess molar enthalpy [kJ/mol]
298.15 K | 0
313.15 K | 0

CCOC(C)(C)C [2-ethoxy-2-methylpropane] + Cc1ccccc1
excess molar enthalpy [kJ/mol]
Settings | 298.15 K | 313.15 K
x1 = 0.0248 | -0.0039 | –
x1 = 0.0491 | -0.0073 | –
x1 = 0.0499 | – | -0.00332
x1 = 0.0739 | -0.0109 | –
x1 = 0.0997 | – | -0.00541
x1 = 0.1003 | -0.0149 | –
x1 = 0.1498 | -0.0212 | –
x1 = 0.151 | – | -0.00928
x1 = 0.1991 | -0.0275 | –
x1 = 0.2004 | – | -0.0125
x1 = 0.2489 | -0.0324 | –
x1 = 0.2511 | – | -0.0169
x1 = 0.2993 | -0.0371 | –
x1 = 0.2998 | – | -0.02
x1 = 0.3499 | – | -0.0216
x1 = 0.3513 | -0.0405 | –
x1 = 0.3987 | -0.0433 | –
x1 = 0.4011 | – | -0.0247
x1 = 0.4495 | -0.045 | –
x1 = 0.45 | – | -0.0254
x1 = 0.5003 | – | -0.0272
x1 = 0.5019 | -0.046 | –
x1 = 0.5499 | – | -0.0265
x1 = 0.5515 | -0.0457 | –
x1 = 0.599 | -0.0452 | –
x1 = 0.6007 | – | -0.025
x1 = 0.6491 | -0.0425 | –
x1 = 0.6506 | – | -0.0245
x1 = 0.6996 | – | -0.0229
x1 = 0.7014 | -0.0396 | –
x1 = 0.7495 | -0.0348 | –
x1 = 0.7498 | – | -0.0206
x1 = 0.801 | -0.0293 | –
x1 = 0.8013 | – | -0.0172
x1 = 0.8492 | – | -0.0143
x1 = 0.8514 | -0.0222 | –
x1 = 0.9006 | -0.0151 | –
x1 = 0.9008 | – | -0.01
x1 = 0.951 | -0.0072 | –
x1 = 0.9511 | – | -0.00601
x1 = 1 | 0 | 0

COC(C)(C)C [2-methoxy-2-methylpropane] + CCCCCC
298.15 K
Settings | excess molar enthalpy [kJ/mol]
x1 = 0.0504 | 0.0718
x1 = 0.1002 | 0.133
x1 = 0.1497 | 0.188
x1 = 0.2008 | 0.237
x1 = 0.2491 | 0.275
x1 = 0.2994 | 0.309
x1 = 0.3486 | 0.337
x1 = 0.4002 | 0.358
x1 = 0.4484 | 0.369
x1 = 0.4997 | 0.374
x1 = 0.5493 | 0.37
x1 = 0.6006 | 0.359
x1 = 0.6496 | 0.341
x1 = 0.7001 | 0.313
x1 = 0.75 | 0.281
x1 = 0.7992 | 0.238
x1 = 0.8501 | 0.189
x1 = 0.9007 | 0.132
x1 = 0.9506 | 0.0706
x1 = 1 | 0

Cc1ccccc1 [toluene] + CCOC(C)(C)C
x2 = 0
Settings | excess molar enthalpy [kJ/mol]
298.15 K | 0
313.15 K | 0

Cc1ccccc1 [toluene] + C1CCCCC1
x2 = 0
Settings | excess molar enthalpy [kJ/mol]
298.15 K | 0
313.15 K | 0

CCCCCC [hexane] + C1CCCCC1
Settings | excess molar enthalpy [kJ/mol]
298.15 K, x2 = 0 | 0

CCCCCC [hexane] + COC(C)(C)C
Settings | excess molar enthalpy [kJ/mol]
298.15 K, x2 = 0 | 0
